Measurements: US20120165304A1, “6,7,8,9-Tetrahydro-5H-1,4,7,10a-tetraaza-cyclohept[f]indene derivatives, pharmaceutical compositions containing these compounds, their use and processes for preparing them” (BOEHRINGER INGELHEIM INTERNATIONAL GMBH, priority 2008, published 2012)

Target: human 5-HT2C receptor (Homo sapiens, UniProt P28335, I156V/I160V/N158S)
Assay: cell-based

Chain of human 5-HT2C receptor (P28335 33-458 I156V/N158S/I160V limits assumed): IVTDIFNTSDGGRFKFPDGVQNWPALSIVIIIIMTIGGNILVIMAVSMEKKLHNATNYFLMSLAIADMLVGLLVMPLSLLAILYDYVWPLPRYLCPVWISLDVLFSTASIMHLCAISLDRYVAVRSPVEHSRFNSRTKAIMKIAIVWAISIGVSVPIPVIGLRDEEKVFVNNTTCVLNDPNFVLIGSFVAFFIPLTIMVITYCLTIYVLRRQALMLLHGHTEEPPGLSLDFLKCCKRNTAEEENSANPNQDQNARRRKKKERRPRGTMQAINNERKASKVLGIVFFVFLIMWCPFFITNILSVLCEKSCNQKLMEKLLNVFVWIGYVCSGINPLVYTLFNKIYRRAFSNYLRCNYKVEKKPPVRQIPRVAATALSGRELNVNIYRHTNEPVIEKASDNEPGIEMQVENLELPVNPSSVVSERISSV

| Structure (SMILES) | EC50 [nM] |
| --- | --- |
| CNCCN(C)C(=O)C1CN(c2c3c(nc4ccnn24)CCNCC3)C1 [Example 37.20] | 26 |
| Cc1cnn2c(N3CC(C(=O)N4CCc5ccccc54)C3)c3c(nc12)CCNCC3 [Example 31.236] | 31 |
| Cc1cnn2c(N3CC(C(=O)N4CCc5cc(F)ccc54)C3)c3c(nc12)CCNCC3 [Example 31.245] | 26 |
| O=C(C1CN(c2c3c(nc4ccnn24)CCNCC3)C1)N1CCCNCC1 [Example 37.6] | 2 |
| c1cc2c(c(OC3CN(c4c5c(nc6ccnn46)CCNCC5)C3)c1)CCCC2 [Example 35.25] | 666 |
| Fc1cc(OCC2CN(c3c4c(nc5ccnn35)CCNCC4)C2)ccc1Cl [Example 15.13] | 28 |
| COc1ccccc1N(C)C(=O)C1CN(c2c3c(nc4ccnn24)CCNCC3)C1 [Example 31.38] | 790 |
| CN(Cc1cccc(Cl)c1Cl)C(=O)C1CN(c2c3c(nc4ccnn24)CCNCC3)C1 [Example 31.168] | 107 |
| CN1CCN(C(=O)C2CN(c3c4c(nc5ccnn35)CCNCC4)C2)CC1=O [Example 37.100] | 14 |
| COc1ccc2cc(OC3CN(c4c5c(nc6ccnn46)CCNCC5)C3)ccc2c1 [Example 35.13] | 1360 |
| Cc1cnc(C2CN(c3c4c(nc5ccnn35)CCNCC4)C2)o1 [Example 10, 10-[3-(5-Methyl-oxazol-2-yl)-azetidin-1-yl]-6,7,8,9-tetrahydro-5H-1,4,7,10a-tetraaza-cyclohepta[f]indene] | 846 |
| CN(C)C(=O)C1CN(c2c3c(nc4ccnn24)CCNCC3)C1 [Example 9, 1-(6,7,8,9-Tetrahydro-5H-1,4,7,10a-tetraaza-cyclohepta[f]inden-10-yl)-azetidine-3-carboxylic acid dimethylamide] | 71 |
| CN(C)CCCNC(=O)C1CN(c2c3c(nc4ccnn24)CCN(C)CC3)C1 [Example 36.53] | 87 |
| CN1CC(NC(=O)C2CN(c3c4c(nc5ccnn35)CCNCC4)C2)C1 [Example 37.64] | 4 |
| CN(Cc1ccccc1Cl)C(=O)C1CN(c2c3c(nc4ccnn24)CCNCC3)C1 [Example 31.37] | 68 |
| FC(F)(F)c1cnc(OC2CN(c3c4c(nc5ccnn35)CCNCC4)C2)c(Cl)c1 [Example 20.7] | 424 |
| c1ccc(OCC2CN(c3c4c(nc5ccnn35)CCNCC4)C2)nc1 [Example 15.28] | 24 |
| CN(Cc1cccc2ccccc12)C(=O)C1CN(c2c3c(nc4ccnn24)CCNCC3)C1 [Example 31.76] | 81 |
| O=C(C1CN(c2c3c(nc4ccnn24)CCNCC3)C1)N1CCC(c2ccccc2F)C1 (centres unmarked) [Example 31.116] | 60 |
| CCOc1cccc(OC2CN(c3c4c(nc5ccnn35)CCNCC4)C2)c1 [Example 35.27] | 93 |
| CCC(C)CNC(=O)C1CN(c2c3c(nc4ccnn24)CCNCC3)C1 (centres unmarked) [Example 37.86] | 41 |
| COc1cc(Br)ccc1OC1CN(c2c3c(nc4ccnn24)CCNCC3)C1 [Example 35.17] | 88 |
| CN1CCc2nc3ccnn3c(N3CC(C(=O)NC4CCCC(C(F)(F)F)C4)C3)c2CC1 (centres unmarked) [Example 36.45] | 87 |
| CN1C2CCC1CC(NC(=O)C1CN(c3c4c(nc5ccnn35)CCNCC4)C1)C2 (centres unmarked) [Example 37.93] | 12 |
| O=C(NCC1CCOC1)C1CN(c2c3c(nc4ccnn24)CCNCC3)C1 (centres unmarked) [Example 37.61] | 64 |
| CC(C)CCNC(=O)C1CN(c2c3c(nc4ccnn24)CCNCC3)C1 [Example 37.82] | 33 |
| CC(C)c1ccccc1OC1CCN(C(=O)C2CN(c3c4c(nc5ccnn35)CCNCC4)C2)CC1 [Example 31.219] | 124 |

| Structure (SMILES) | EC50 [nM] |
| --- | --- |
| O=C(C1CN(c2c3c(nc4ccnn24)CCNCC3)C1)N1CCC(Cc2ccc(Cl)cc2)C1 (centres unmarked) [Example 31.120] | 103 |
| FC(F)(F)c1cccnc1OC1CN(c2c3c(nc4ccnn24)CCNCC3)C1 [Example 20.12] | 959 |
| Cc1cnn2c(N3CCCCC3)c3c(nc12)CCNCC3 [Example 27.1] | 37 |
| C#CCN1CCN(C(=O)C2CN(c3c4c(nc5ccnn35)CCNCC4)C2)CC1 [Example 37.39] | 7 |
| O=C(C1CN(c2c3c(nc4ccnn24)CCNCC3)C1)N1CCC(N2CCOCC2)CC1 [Example 37.19] | 5 |
| Clc1ccccc1OC1CN(c2c3c(nc4ccnn24)CCNCC3)C1 [Example 35.3] | 98 |
| Cc1cnn2c(N3CCC3)c3c(nc12)CCNCC3 [Example 27, 10-Azetidin-1-yl-3-methyl-6,7,8,9-tetrahydro-5H-1,4,7,10a-tetraaza-cyclohepta[f]indene] | 49 |
| CC(C)CC(=O)N1CCN(C(=O)C2CN(c3c4c(nc5ccnn35)CCNCC4)C2)CC1 [Example 37.57] | 27 |
| CC(C)(C)CNC(=O)C1CN(c2c3c(nc4ccnn24)CCNCC3)C1 [Example 37.76] | 65 |
| CN1CCc2nc3ccnn3c(N3CC(C(=O)N4CCN(C)C(=O)C4)C3)c2CC1 [Example 36.19] | 257 |
| Fc1ccccc1OC1CN(c2c3c(nc4ccnn24)CCNCC3)C1 [Example 1.8] | 5 |
| CCCN(C)C(=O)C1CN(c2c3c(nc4ccnn24)CCNCC3)C1 [Example 31.66] | 360 |
| FC(F)(F)c1ccc(OC2CN(c3c4c(nc5ccnn35)CCNCC4)C2)nc1 [Example 20.8] | 939 |
| C[C@@H]1CN(C(=O)C2CN(c3c4c(nc5ccnn35)CCN(C)CC4)C2)C[C@H](C)O1 [Example 36.21] | 161 |
| CN(Cc1ccccn1)C(=O)C1CN(c2c3c(nc4ccnn24)CCNCC3)C1 [Example 31.29] | 87 |
| CN(C(=O)C1CCCN(c2c3c(nc4ccnn24)CCNCC3)C1)c1ccccc1 (centres unmarked) [Example 1.60] | 1590 |
| CN1CCc2nc3ccnn3c(N3CC(C(=O)N4CCNCC4)C3)c2CC1 [Example 36.57] | 287 |
| CC(C)CCNC(=O)C1CN(c2c3c(nc4ccnn24)CCN(C)CC3)C1 [Example 36.56] | 217 |
| O=C(C1CN(c2c3c(nc4ccnn24)CCNCC3)C1)N1CCCC(F)C1 (centres unmarked) [Example 31.193] | 64 |
| CC1Cc2ccccc2N1C(=O)C1CN(c2c3c(nc4ccnn24)CCNCC3)C1 (centres unmarked) [Example 31.234] | 380 |
| CN(CC1CCCCC1)C(=O)C1CN(c2c3c(nc4ccnn24)CCNCC3)C1 [Example 31.100] | 158 |
| O=C(C1CN(c2c3c(nc4ccnn24)CCNCC3)C1)N1CCCC1 [Example 31.64] | 199 |
| O=C(C1CN(c2c3c(nc4ccnn24)CCNCC3)C1)N1CCC2(CCCCC2)CC1 [Example 31.35] | 50 |
| CN(C)CCCN(C)C(=O)C1CN(c2c3c(nc4ccnn24)CCN(C)CC3)C1 [Example 36.55] | 87 |
| COc1ccc(OC2CN(c3c4c(nc5c(C)cnn35)CCNCC4)C2)cc1 [Example 27.2] | 55 |
| CN1CCc2nc3ccnn3c(N3CC(C(=O)NCCCN4CC[C@@H](F)C4)C3)c2CC1 [Example 36.32] | 288 |
| O=C(C1CN(c2c3c(nc4ccnn24)CCNCC3)C1)N1CCC(c2ccccc2)(c2ccccc2)CC1 [Example 31.72] | 819 |

| Structure (SMILES) | EC50 [nM] |
| --- | --- |
| O=C(C1CN(c2c3c(nc4c(Br)cnn24)CCNCC3)C1)N1CCc2ccccc2C1 [Example 31.136] | 78 |
| CC(c1ccccc1)n1c(C2CN(c3c4c(nc5ccnn35)CCNCC4)C2)nc2cc(Cl)ccc21 (centres unmarked) [Example 34.37] | 2380 |
| CN(Cc1cccs1)C(=O)C1CN(c2c3c(nc4ccnn24)CCNCC3)C1 [Example 31.43] | 35 |
| Cc1cc(OCC2CN(c3c4c(nc5ccnn35)CCNCC4)C2)ccc1F [Example 15.4] | 25 |
| CCN1CCN(C(=O)C2CN(c3c4c(nc5ccnn35)CCNCC4)C2)CC1 [Example 37.1] | 3 |
| COc1ccc(CC2CN(c3c4c(nc5ccnn35)CCNCC4)C2)cc1 [Example 18.1] | 119 |
| CCCCN1CCN(C(=O)C2CN(c3c4c(nc5ccnn35)CCNCC4)C2)CC1=O [Example 37.51] | 11 |
| O=C(C1CN(c2c3c(nc4ccnn24)CCNCC3)C1)N1CCC(F)CC1 [Example 31.206] | 146 |
| COc1cccc(N(C)C(=O)C2CN(c3c4c(nc5ccnn35)CCNCC4)C2)c1 [Example 31.55] | 600 |
| COc1cccc(F)c1OCC1CN(c2c3c(nc4ccnn24)CCNCC3)C1 [Example 15.23] | 47 |
| Cc1cnn2c(N3CC(C(=O)N4CCC(c5ccccc5F)CC4)C3)c3c(nc12)CCNCC3 [Example 31.243] | 82 |
| Brc1cnn2c(N3CC(Oc4ccccc4)C3)c3c(nc12)CCNCC3 [Example 2.1] | 7 |
| O=C(C1CN(c2c3c(nc4ccnn24)CCNCC3)C1)N1CC[C@H]2CCCC[C@@H]2C1 [Example 31.130] | 57 |
| Cc1ccc(CN(C)C(=O)C2CN(c3c4c(nc5ccnn35)CCNCC4)C2)s1 [Example 31.24] | 53 |
| COc1ccc(OC2CN(c3c4c(nc5ccnn35)CCNCC4)C2)c(Cl)c1 [Example 35.19] | 87 |
| CCn1c(C2CN(c3c4c(nc5ccnn35)CCNCC4)C2)nc2cc(F)ccc21 [Example 34.39] | 666 |
| COC1(C)CCN(C(=O)C2CN(c3c4c(nc5ccnn35)CCNCC4)C2)CC1 [Example 31.220] | 55 |
| c1ccc(OCC2CN(c3c4c(nc5ccnn35)CCNCC4)C2)cc1 [Example 15.17] | 31 |
| CN(Cc1cccc(Cl)c1)C(=O)C1CN(c2c3c(nc4ccnn24)CCNCC3)C1 [Example 31.39] | 44 |
| Cc1ccc(CN(C)C(=O)C2CN(c3c4c(nc5ccnn35)CCNCC4)C2)cc1 [Example 31.50] | 51 |
| COc1ccc(OC2CN(c3c4c(nc5ccnn35)CCNCC4)C2)c(F)c1 [Example 35.34] | 65 |
| CC(C)c1ccc(CN(C)C(=O)C2CN(c3c4c(nc5ccnn35)CCNCC4)C2)cc1 [Example 31.163] | 108 |
| CC(=O)NC1CCN(C(=O)C2CN(c3c4c(nc5ccnn35)CCNCC4)C2)CC1 [Example 37.29] | 10 |
| CC(C)C(NC(=O)C1CN(c2c3c(nc4ccnn24)CCNCC3)C1)C(F)(F)F (centres unmarked) [Example 37.104] | 106 |
| CN(CCc1ccccc1)C(=O)C1CN(c2c3c(nc4ccnn24)CCNCC3)C1 [Example 31.61] | 176 |
| O=C(C1CN(c2c3c(nc4ccnn24)CCNCC3)C1)N1CCC2(CCCC2)C1 [Example 31.123] | 9 |
